# Target: T1, Hexokinase-4 (Homo sapiens, UniProt P35557)
# T1 sequence (P35557 whole entry): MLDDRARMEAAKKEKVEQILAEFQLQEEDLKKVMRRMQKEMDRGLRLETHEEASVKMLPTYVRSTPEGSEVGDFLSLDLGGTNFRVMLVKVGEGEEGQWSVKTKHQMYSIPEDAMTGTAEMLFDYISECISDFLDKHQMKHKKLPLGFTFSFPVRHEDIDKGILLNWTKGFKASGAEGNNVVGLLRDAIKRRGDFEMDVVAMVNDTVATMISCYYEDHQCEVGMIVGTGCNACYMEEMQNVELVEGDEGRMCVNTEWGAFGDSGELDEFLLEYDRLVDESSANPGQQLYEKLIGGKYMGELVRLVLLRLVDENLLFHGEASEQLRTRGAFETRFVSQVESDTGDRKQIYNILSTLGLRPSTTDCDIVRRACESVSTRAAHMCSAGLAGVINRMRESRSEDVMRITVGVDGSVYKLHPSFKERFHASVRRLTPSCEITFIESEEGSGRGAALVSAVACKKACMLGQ
# Assay: Activation of recombinant human His6-tagged glucokinase by G6PDH-coupled spectrophotometry
row,Structure (SMILES),EC50
1,O=C(O)CCn1cc(-c2cnc(NC(=O)C(CC3CCOCC3)c3ccc(S(=O)(=O)C4CC4)cc3)s2)nn1 (racemic),1350 nM
2,O=C(Cn1cc(-c2cnc(NC(=O)C(CC3CCOCC3)c3ccc(S(=O)(=O)C4CC4)cc3)s2)nn1)NC1CC1 (racemic),> 20000 nM
3,O=C(Nc1ncc(-c2cn(CCO)nn2)s1)[C@H](CC1CCOCC1)c1ccc(S(=O)(=O)C2CC2)cc1,220 nM
4,CN1CCN(C(=O)Cn2cc(-c3cnc(NC(=O)C(CC4CCOCC4)c4ccc(S(=O)(=O)C5CC5)cc4)s3)nn2)CC1 (racemic),790 nM
5,O=C(O)CCNC(=O)c1cnc(NC(=O)C(CC2CCOCC2)c2ccc(S(=O)(=O)C3CC3)cc2)s1 (racemic),1800 nM
6,CCN(CC)C(=O)Cn1cc(-c2cnc(NC(=O)C(CC3CCOCC3)c3ccc(S(=O)(=O)C4CC4)cc3)s2)nn1 (racemic),210 nM
7,COC(=O)[C@H](CC(C)C)NC(=O)c1cnc(NC(=O)C(CC2CCOCC2)c2ccc(S(=O)(=O)C3CC3)cc2)s1 (mixture of isomers),1520 nM
8,CC(C)C[C@H](NC(=O)c1cnc(NC(=O)C(CC2CCOCC2)c2ccc(S(=O)(=O)C3CC3)cc2)s1)C(=O)O (mixture of isomers),> 20000 nM
9,O=C(Nc1ncc(-c2cn(CCO)nn2)s1)C(CC1CCOCC1)c1ccc(S(=O)(=O)C2CC2)cc1 (racemic),180 nM
10,CCOC(=O)Cn1cc(-c2cnc(NC(=O)C(CC3CCOCC3)c3ccc(S(=O)(=O)C4CC4)cc3)s2)nn1 (racemic),330 nM
11,CCOC(=O)CCCn1cc(-c2cnc(NC(=O)C(CC3CCOCC3)c3ccc(S(=O)(=O)C4CC4)cc3)s2)nn1 (racemic),450 nM
12,CN(C)C(=O)Cn1cc(-c2cnc(NC(=O)C(CC3CCOCC3)c3ccc(S(=O)(=O)C4CC4)cc3)s2)nn1 (racemic),300 nM
13,O=C(Nc1ncc(-c2cn(CCOCc3ccccc3)nn2)s1)C(CC1CCOCC1)c1ccc(S(=O)(=O)C2CC2)cc1 (racemic),290 nM
14,COC(=O)CCNC(=O)c1cnc(NC(=O)C(CC2CCOCC2)c2ccc(S(=O)(=O)C3CC3)cc2)s1 (racemic),520 nM
15,CCNC(=O)Cn1cc(-c2cnc(NC(=O)C(CC3CCOCC3)c3ccc(S(=O)(=O)C4CC4)cc3)s2)nn1 (racemic),> 20000 nM
16,O=C(Nc1ncc(-c2cn(CC(=O)N3CCOCC3)nn2)s1)C(CC1CCOCC1)c1ccc(S(=O)(=O)C2CC2)cc1 (racemic),640 nM
17,CC(C)[C@H](NC(=O)c1cnc(NC(=O)C(CC2CCOCC2)c2ccc(S(=O)(=O)C3CC3)cc2)s1)C(=O)O (mixture of isomers),11300 nM
18,CNC(=O)Cn1cc(-c2cnc(NC(=O)C(CC3CCOCC3)c3ccc(S(=O)(=O)C4CC4)cc3)s2)nn1 (racemic),170 nM
19,CCOC(=O)CCn1cc(-c2cnc(NC(=O)C(CC3CCOCC3)c3ccc(S(=O)(=O)C4CC4)cc3)s2)nn1 (racemic),350 nM
20,COC(=O)[C@@H](NC(=O)c1cnc(NC(=O)C(CC2CCOCC2)c2ccc(S(=O)(=O)C3CC3)cc2)s1)C(C)C (mixture of isomers),1440 nM
